The source of these data is PMC5426640, “A novel multifunctional peptide oligomer of bacitracin with possible bioindustrial and therapeutic applications from a Korean food-source Bacillus strain” (PLoS ONE, 2017).

The subject of data set [1] is Staphylococcus aureus KCTC 1928. The format is cell-based. The note with it: KCTC 1928, 18 h. On the procedure:
(§1) This activity in terms of minimal inhibitory concentration (MIC) was determined by dilution and disk diffusion methods as per the Clinical and Laboratory Standards Institute (CLSI) guidelines for antimicrobial susceptibility testing. The examination of bacteria was conducted after incubation for 18 h at 37°C following inoculation of various test microorganisms, including methicillin-resistant Staphylococcus aureus (MRSA), vancomycin-resistant S. aureus (VRSA), or vancomycin-resistant enterococci (VRE). Control antibiotics were bacitracin and vancomycin.

Data set [2] relates to Pseudomonas aeruginosa KCTC 1637. The format is cell-based. The note with it: KCTC 1637, 18 h. On the procedure:
as §1

The subject of data set [3] is Bacillus subtilis ATCC 6633. The class given is cell-based. The note with it: ATCC 6633, 18 h. Here is the method: as §1
The test system of data set [4] is Escherichia coli KCTC 1923. The format is cell-based. The note with it: KCTC 1923, 18 h. Here is the method:
as §1

The test system of data set [5] is Enterococcus faecalis ATCC 29212. The class given is cell-based. The note with it: ATCC 29212, 18 h. On the procedure:
as §1

The test system of data set [6] is Salmonella typhimurium KCTC 1925. As to the kind of experiment: microbe, parasite or virus in culture. The format is cell-based. On the procedure: as §1
In data set [7] the test system is Alcaligenes faecalis ATCC 1004. In words: microbe, parasite or virus in culture. The format is cell-based. Here is the method: as §1
The subject of data set [8] is Mycobacterium smegmatis ATCC 9341. As to the kind of experiment: microbe, parasite or virus in culture. The format is cell-based. The note with it: ATCC 9341, 18 h. Here is the method: as §1
The test system of data set [9] is Micrococcus luteus ATCC 9341. In words: microbe, parasite or virus in culture. The class given is cell-based. On the procedure:
as §1

The test system of data set [10] is Listeria monocytogenes KCTC3569. In words: microbe, parasite or virus in culture. The note with it: KCTC3569, 18 h. The class given is cell-based. On the procedure: as §1
Data set [11] has as its system VRE 2. In words: microbe, parasite or virus in culture. The format is cell-based, enterococci. The note with it: 18 h. On the procedure:
as §1

In data set [12] the test system is VRSA. In words: microbe, parasite or virus in culture. The class given is cell-based, S. aureus. The note with it: 18 h. On the procedure: as §1
For data set [13], the system named is MRSA 5–3. As to the kind of experiment: microbe, parasite or virus in culture. The format is cell-based, Staphylococcus aureus. Here is the method: as §1
Data set [14] concerns MRSA S3. In words: microbe, parasite or virus in culture. The format is cell-based, Staphylococcus aureus. Here is the method: as §1
In data set [15] the test system is MRSA U4. As to the kind of experiment: microbe, parasite or virus in culture. The class given is cell-based, Staphylococcus aureus. Here is the method: as §1
Data set [16] concerns MRSA 639E. As to the kind of experiment: microbe, parasite or virus in culture. The class given is cell-based, Staphylococcus aureus. The note with it: 18 h. On the procedure: as §1
Data set [17] relates to MSRA S1. In words: microbe, parasite or virus in culture. The format is cell-based, Staphylococcus aureus. The note with it: 18 h. Here is the method:
as §1

Data set [18] concerns MRSA P3. As to the kind of experiment: microbe, parasite or virus in culture. The format is cell-based, Staphylococcus aureus. Here is the method: as §1
Data set [19] has as its system MRSA 4–5. As to the kind of experiment: microbe, parasite or virus in culture. The class given is cell-based, Staphylococcus aureus. Here is the method: as §1
The test system of data set [20] is VRE3. As to the kind of experiment: organism not typed. The format is cell-based, enterococci. The note with it: 18 h. On the procedure: as §1
For data set [21], the system named is VRE5. As to the kind of experiment: organism not typed. The format is cell-based, enterococci. The note with it: 18 h. On the procedure:
as §1

Data set [22] deals with VRE4. As to the kind of experiment: organism not typed. The class given is cell-based, enterococci. The note with it: 18 h. Here is the method: as §1
In data set [23] the test system is VRE89. As to the kind of experiment: organism not typed. The format is cell-based, enterococci. The note with it: 18 h. On the procedure: as §1
Data set [24] concerns VRE82. As to the kind of experiment: organism not typed. The class given is cell-based, enterococci. The note with it: 18 h. On the procedure:
as §1

Data set [25] relates to VRE6. As to the kind of experiment: organism not typed. The format is cell-based, enterococci. The note with it: 18 h. Here is the method: as §1
For data set [26], the system named is RAW 264.7 cells. In words: Cell viability, MTT assay. The note with it: 5–100 μg/mL, 24 h; three independent experiments in triplicate. The format is cell-based, mouse. Here is the method:
Cell viability was assessed using the 3-(4,5-dimethylthiazol-2-yl)-2,5-diphenyltetrazolium bromide (MTT) assay as described previously by Choi et al. (2016). For the cell viability assay, RAW 264.7 cells were seeded into a 96-well flat bottom microplate at a density of 2 × 10^4 cells per well and incubated at 37°C for 1 h. […] After 24 h of incubation, the medium was removed and wash in PBS once followed by 100 μl of MTT (5 mg/ml in PBS) solution was added to each well, and the plate was incubated for another 1 h. Then 100 μl of DMSO (100%) was added to dissolve the formazan crystals. Absorbance values were then measured at 450 nm using a microplate reader (Victor3, PerkinElmer).
For orientation: Tetrazolium dyes change colour on reduction, which living cells bring about.

Data set [27] concerns Clostridium difficile KCTC2251. As to the kind of experiment: Antimicrobial activity against anaerobic pathogens (mm). The format is cell-based. The note with it: 48 h, mean ± SD, n = 3.
Data set [28] relates to Propionibacterium acnes KCTC5933. Described as above. The format is cell-based. The note with it: 48 h, mean ± SD, n = 3.
Data set [29] deals with Mycobacterium smegmatis. As to the kind of experiment: microbe, parasite or virus in culture. The format is cell-based. The note with it: Mycolicibacterium smegmatis, ATCC9341, 18 h. On the procedure:
as §1

[30] abbreviates: Staphylococcus aureus, MRSA, 18 h.

Converted amounts (≈) assume the structure as drawn. Where a SMILES comes first, the peptide text is derived from it. Bridges are numbered along the chain shown (N, C = ends). [ ]: non-standard residue; d: D form. The star is where a group is joined. Ileψ(thiazoline)Cys = CC[C@H](C)[C@H](N)C1=N[C@H](C(=O)*)CS1; dOrn = NCCC[C@@H](N)C(=O)O

`CC[C@H](C)[C@H](N)C1=N[C@H](C(=O)N[C@@H](CC(C)C)C(=O)N[C@H](CCC(=O)O)C(=O)N[C@H](C(=O)N[C@H]2CCCCNC(=O)[C@H](CC(N)=O)NC(=O)[C@@H](CC(=O)O)NC(=O)[C@H](Cc3cnc[nH]3)NC(=O)[C@@H](Cc3ccccc3)NC(=O)[C@H]([C@@H](C)CC)NC(=O)[C@@H](CCCN)NC2=O)[C@@H](C)CC)CS1` [Bacitracin] ({Ileψ(thiazoline)Cys}-L[dE]IK[dOrn]I[dF]H[dD]N; lactam 4-C (inferred); N-terminus assumed): the MIC in [1] is 40 µg/mL (≈ 28.1 µM); in data set [2] it was over 80 µg/mL; in data set [3], 40 µg/mL (≈ 28.1 µM); in data set [4] it was over 80 µg/mL; in data set [5], 5 µg/mL (≈ 3.51 µM); in data set [6] (KCTC 1925, 18 h), over 80 µg/mL. In addition, the MIC is over 80 µg/mL in data set [7] (ATCC 1004, 18 h); over 80 µg/mL in data set [8]; over 80 µg/mL in data set [9] (ATCC 9341, 18 h); 0.3125 µg/mL (≈ 0.22 µM) in [10]; 0.3125 µg/mL (≈ 0.22 µM) in data set [11]; over 80 µg/mL in data set [12]. The MIC in [13] (5–3, 18 h) is 1.25 µg/mL (≈ 0.879 µM); in data set [14] (S3, 18 h), 1.25 µg/mL (≈ 0.879 µM); in [15] (U4, 18 h), 1.25 µg/mL (≈ 0.879 µM); in [16] (639E), 40 µg/mL (≈ 28.1 µM); in [17] it was 1.25 µg/mL (≈ 0.879 µM); in [18] (P3, 18 h) it was 1.25 µg/mL (≈ 0.879 µM). Moreover, the MIC in data set [19] (4–5, 18 h) turned out to be 1.25 µg/mL (≈ 0.879 µM); in [20], 20 µg/mL (≈ 14.1 µM); in data set [21] it was 1.25 µg/mL (≈ 0.879 µM); in data set [22], 5 µg/mL (≈ 3.51 µM); in data set [23], 40 µg/mL (≈ 28.1 µM); in [24] it was 40 µg/mL (≈ 28.1 µM). Moreover, the MIC in data set [25] was over 80 µg/mL.
In the case of `CC[C@H](C)[C@H](N)C1=N[C@H](C(=O)N[C@@H](CC(C)C)C(=O)N[C@H](CCC(=O)O)C(=O)N[C@H](C(=O)N[C@H]2CCCCNC(=O)[C@H](CC(N)=O)NC(=O)[C@@H](CC(=O)O)NC(=O)[C@H](Cc3cnc[nH]3)NC(=O)[C@@H](Cc3ccccc3)NC(=O)[C@H]([C@@H](C)CC)NC(=O)[C@@H](CCCN)NC2=O)[C@@H](C)CC)CS1` [CSP32] ({Ileψ(thiazoline)Cys}-L[dE]IK[dOrn]I[dF]H[dD]N; lactam 4-C), the “Cytotoxicity toward RAW 264.7 cells (MTT)” value in [26] is “did not exert cytotoxicity”.
`CC[C@@]1([C@@H]2O[C@@H]([C@H]3O[C@@](O)(CO)[C@H](C)C[C@@H]3C)C[C@@H]2C)CC[C@H]([C@]2(C)CC[C@]3(C[C@H](O)[C@@H](C)[C@@H]([C@@H](C)[C@@H](OC)[C@H](C)C(=O)O)O3)O2)O1` [Monensin]: the “Antimicrobial activity, Clostridium difficile (mm)” value in [27] (concentration 0.125 mg/mL) came to 13.17±0.29 mm; in data set [27] (concentration 0.25 mg/mL), 13.00±0.50 mm; in data set [27] (concentration 0.5 mg/mL) it was 15.17±0.29 mm; in data set [27] (concentration 1 mg/mL), 17.33±0.29 mm. The “Antimicrobial activity, Propionibacterium acnes (mm)” value in data set [28] (concentration 0.125 mg/mL) came to 13.00±0.50 mm; in data set [28] (concentration 0.25 mg/mL), 15.17±0.29 mm; in [28] (concentration 0.5 mg/mL) it was 17.33±0.58 mm; in data set [28] (concentration 1 mg/mL) it was 17.17±0.29 mm.
In the case of `CN[C@H](CC(C)C)C(=O)N[C@H]1C(=O)N[C@@H](CC(N)=O)C(=O)N[C@H]2C(=O)N[C@H]3C(=O)N[C@H](C(=O)N[C@H](C(=O)O)c4cc(O)cc(O)c4-c4cc3ccc4O)[C@H](O)c3ccc(c(Cl)c3)Oc3cc2cc(c3O[C@@H]2O[C@H](CO)[C@@H](O)[C@H](O)[C@H]2O[C@H]2C[C@](C)(N)[C@H](O)[C@H](C)O2)Oc2ccc(cc2Cl)[C@H]1O` [Vancomycin], the MIC in data set [6] (Salmonella enterica, 18 h) is over 80 µg/mL; in [7] (Alcaligenes faecalis, ATCC1004, 18 h), over 80 µg/mL; in data set [29] it was 0.312 µg/mL (≈ 0.216 µM); in data set [9] (Micrococcus luteus, ATCC9341, 18 h) it was 0.156 µg/mL (≈ 0.108 µM); in data set [10] (Listeria monocytogenes), 0.156 µg/mL (≈ 0.108 µM); in [11] (Enterococcus, VRE), over 80 µg/mL. Further, the MIC in data set [12] (Staphylococcus aureus, VRSA) is over 80 µg/mL; in data set [13] (setting [30]), 0.312 µg/mL (≈ 0.216 µM); in data set [14] (setting [30]), 0.312 µg/mL (≈ 0.216 µM); in data set [15] (setting [30]) it was 0.312 µg/mL (≈ 0.216 µM); in [16] (Staphylococcus aureus, MRSA) it was 0.312 µg/mL (≈ 0.216 µM); in data set [17] (Staphylococcus aureus), 0.625 µg/mL (≈ 0.431 µM). The MIC in data set [18] (setting [30]) is 0.625 µg/mL (≈ 0.431 µM); in data set [19] (setting [30]), 0.312 µg/mL (≈ 0.216 µM); in [20] it was over 80 µg/mL; in data set [21] it was over 80 µg/mL; in data set [22], over 80 µg/mL; in data set [23], over 80 µg/mL. Further, the MIC in data set [24] and in data set [25] was over 80 µg/mL in each case.
